Tested on: alternative splicing of host transcripts in HeLa rtTA HIV∆Mls cells
Assay: RT-PCR of host alternative splicing events (PSI), capillary electrophoresis
Assay type: cell-based
Description: To assess the effect of compounds on expression/alternative splicing of cellular RNA, two approaches were used. For both, total RNA was prepared from DMSO or compound-treated cells. In the first assay, samples were assayed by medium throughput RT-PCR to determine the inclusion levels of alternatively spliced exons and splice sites located in 73 selected events. 73 primer sets containing a fluorescently (5-FAM) labeled primer for each, were used in RT-PCR. PCR products generated were denatured in formamide and quantified using ABI Prism capillary sequencer (Life Technologies). The fragment analysis was performed on the PeakScanner software (Life Technologies) in batch mode and automated using custom scripts written in Python. The inclusion level of each exon was calculated as the amount of transcripts carrying the alternative exon relative to the total amount of all transcripts detected in the PCR reaction and results are summarized for compound-treatment in comparison to DMSO treatment. In the second assay, extracted RNA was processed using the Illumina TruSeq RNA Sample Preparation Kit (Illumina) according to the manufacturer’s instructions. The cDNA library generated was validated (passed quality control on a Bioanalyzer 1000 DNA chip (Agilent)), normalized and pooled for cluster generation. cDNA libraries were sequenced on the Illumina HiSeq 2500 (paired-end, 125 bp) with version 4 chemistry following manufacturer’s protocols. The full human genome and transcriptomic sequences were downloaded from the UCSC Genome Browser (genome.ucsc.edu) database and Ensembl (www.ensembl.org), respectively, as described by Irimia et al.. Exon annotations and genomic coordinates for alternative splicing (AS) analysis were derived from tables downloaded from the UCSC Genome Browser database. To determine gene expression (GE) or alternative splicing (AS) changes in an unbiased way, the effective number of unique mappable positions in each transcript (i.e. the effective length) was determined by aligning sequences with unique transcriptomic alignment to the human genome using Bowtie. Reads with one unique genomic alignment were then aligned against the canonical transcriptome and, for each transcript, the number of reads with one unique transcriptomic alignment were counted. The expression level of genes was quantified as corrected ‘reads per kilobase of exon model per million mapped reads’ (cRPKM), a widely used metric to estimate gene expression levels. The expression cutoff was 0.5 cRPKM, corresponding to the transcript of the gene being present if there were ≥10 reads that mapped uniquely to a single genomic locus. Approximately 19,847 Ensembl annotated protein-coding genes were compared to create a gene list of differentially expressed genes. Genes were considered differentially expressed if fold changes in cRPKM was ≥2 in compound-treated versus DMSO-treated samples.

[1] = of 70 AS events, 791 30 µM, 833 2 µM

O=C(NC(=S)NNC(=O)c1ccccc1O)c1ccc(-c2ccccc2)cc1 [Compound 833, N-([2-(2-hydroxybenzoyl)hydrazino]carbonothioyl}-4-biphenylcarboxamide]
DPSI AGPAT4_1 chr6:161506598-161506735 (5227833 minus DMSO, mean n=3): -3.33%
DPSI AGPAT4_1 chr6:161507269-161507439 (5227833 minus DMSO, mean n=3): -5.00%
DPSI APLP2_1 chr11:129498717-129498884 (5227833 minus DMSO, mean n=3): -2.67%
DPSI APP_1 chr21:26291546-26291602 (5227833 minus DMSO, mean n=3): -0.67%
DPSI APP_1 chr21:26294201-26294368 (5227833 minus DMSO, mean n=3): -0.67%
DPSI ATP6V0A1_1 chr17:37919833-37920004 (5227833 minus DMSO, mean n=3): 6.67%
DPSI CA12_1 chr15:61406400-61406485 (5227833 minus DMSO, mean n=3): 0.67%
DPSI CA12_1 chr15:61407349-61407382 (5227833 minus DMSO, mean n=3): -2.67%
DPSI CASP9_1 chr1:15703693-15703840* (5227833 minus DMSO, mean n=3): -1.33%
DPSI CAST_1 chr5:96090613-96090669 (5227833 minus DMSO, mean n=3): -3.33%
DPSI CLSTN1_1 chr1:9720143-9720199 (5227833 minus DMSO, mean n=3): -17.00%
DPSI CLSTN1_2 chr1:9739126-9739155 (5227833 minus DMSO, mean n=3): -4.67%
DPSI CRBN_1 chr3:3191846-3191950 (5227833 minus DMSO, mean n=3): 0.00%
DPSI CRBN_1 chr3:3191950-3191953 (5227833 minus DMSO, mean n=3): -2.00%
DPSI CTNND1_1 chr11:57318058-57318129 (5227833 minus DMSO, mean n=3): -6.67%
DPSI DNM1L_1 chr12:32782066-32782143 (5227833 minus DMSO, mean n=3): 7.67%
DPSI DNM1L_1 chr12:32782465-32782497 (5227833 minus DMSO, mean n=3): -4.33%
DPSI DRCTNNB1A_1 chr7:22953096-22953391 (5227833 minus DMSO, mean n=3): -8.33%
DPSI EIF4A2_1 chr7:187988792-187988899 (5227833 minus DMSO, mean n=3): -10.67%
DPSI EIF4A2_1 chr7:187988899-187988904 (5227833 minus DMSO, mean n=3): -7.67%
DPSI EIF4H_1 chr7:73242512-73242572 (5227833 minus DMSO, mean n=3): -5.00%
DPSI ERC1_1 chr12:1091641-1091725 (5227833 minus DMSO, mean n=3): -11.00%
DPSI EXOC7_1 chr17:71598005-71598035 (5227833 minus DMSO, mean n=3): -3.67%
DPSI EXOC7_1 chr17:71598819-71598911 (5227833 minus DMSO, mean n=3): -5.67%
DPSI FAM62B_1 chr7:158238233-158238295 (5227833 minus DMSO, mean n=3): -4.67%
DPSI FAM104A_1 chr17:68720412-68720474 (5227833 minus DMSO, mean n=3): -5.00%
DPSI FGFR1OP2_1 chr12:27004715-27004828 (5227833 minus DMSO, mean n=3): -20.67%
DPSI FIP1L1_1 chr4:53975538-53975646 (5227833 minus DMSO, mean n=3): -14.67%
DPSI GGCT_1 chr7:30504943-30505080 (5227833 minus DMSO, mean n=3): 3.00%
DPSI GGCT_1 chr7:30506676-30506822 (5227833 minus DMSO, mean n=3): -0.33%
DPSI GLK_1 chr2:39388587-39388650 (5227833 minus DMSO, mean n=3): -13.67%
DPSI GM130_1 chr9:130069293-130069374 (5227833 minus DMSO, mean n=3): -18.33%
DPSI GRB10_1 chr7:50651400-50651538 (5227833 minus DMSO, mean n=3): 0.67%
DPSI KIF13A_1 chr6:17879324-17879428 (5227833 minus DMSO, mean n=3): -0.33%
DPSI MACF1_1 chr1:39616720-39616782 (5227833 minus DMSO, mean n=3): 14.00%
DPSI MACF1_5 chr1:39719179-39719289 (5227833 minus DMSO, mean n=3): -18.33%
DPSI MAP3K7_1 chr6:91310992-91311072 (5227833 minus DMSO, mean n=3): 2.67%
DPSI MARK3_1 chr14:103034592-103034618 (5227833 minus DMSO, mean n=3): -9.00%
DPSI MARK3_1 chr14:103036246-103036290 (5227833 minus DMSO, mean n=3): -5.33%
DPSI MBD1_1 chr18:46054554-46054721 (5227833 minus DMSO, mean n=3): -3.33%
DPSI MBNL2_1 chr13:96807051-96807104 (5227833 minus DMSO, mean n=3): 17.33%
DPSI MFF_1 chr2:227901637-227901749 (5227833 minus DMSO, mean n=3): -11.67%
DPSI MRIP_1 chr17:17024646-17024708 (5227833 minus DMSO, mean n=3): -6.33%
DPSI MVK_1 chr12:108501990-108502134 (5227833 minus DMSO, mean n=3): 15.67%
DPSI MVK_1 chr12:108503583-108503738 (5227833 minus DMSO, mean n=3): 16.67%
DPSI NAP1L1_1 chr12:74747418-74747520 (5227833 minus DMSO, mean n=3): -15.67%
DPSI NAP1L1_1 chr12:74748956-74749041 (5227833 minus DMSO, mean n=3): -18.33%
DPSI NPHP3_1 chr3:133898264-133898347 (5227833 minus DMSO, mean n=3): -6.67%
DPSI PDCL_1 chr9:124628716-124628892 (5227833 minus DMSO, mean n=3): 3.67%
DPSI POLDIP3_1 chr22:41327919-41328006 (5227833 minus DMSO, mean n=3): -17.00%
DPSI POMT1_1 chr9:133368281-133368521 (5227833 minus DMSO, mean n=3): 4.67%
DPSI POMT1_1 chr9:133371321-133371428 (5227833 minus DMSO, mean n=3): -10.00%
DPSI RAI14_1 chr5:34849436-34849522 (5227833 minus DMSO, mean n=3): 2.33%
DPSI RAN_1 chr12:129923082-129923127 (5227833 minus DMSO, mean n=3): -2.00%
DPSI RPS24_1 chr10:79467729-79467746 (5227833 minus DMSO, mean n=3): 3.00%
DPSI SEC24B_1 chr4:110622281-110622386 (5227833 minus DMSO, mean n=3): -18.67%
DPSI SETD5_1 chr3:9453533-9453572 (5227833 minus DMSO, mean n=3): -3.33%
DPSI SMN2_1 chr5_h2_hap1:475625-475826 (5227833 minus DMSO, mean n=3): 2.33%
DPSI SMN2_2 chr5_h2_hap1:466192-466246 (5227833 minus DMSO, mean n=3): -7.33%
DPSI SPAG9_1 chr17:46408223-46408261 (5227833 minus DMSO, mean n=3): -12.00%
DPSI SRPK2_1 chr2:104553464-104553557 (5227833 minus DMSO, mean n=3): -9.00%
DPSI SRPK2_1 chr2:104553930-104554023 (5227833 minus DMSO, mean n=3): 5.67%
DPSI TPM1_1 chr15:61140450-61140525 (5227833 minus DMSO, mean n=3): 1.00%
DPSI TPM1_1 chr15:61140965-61141040 (5227833 minus DMSO, mean n=3): -1.00%
DPSI TRIM37_1 chr17:54433741-54433857 (5227833 minus DMSO, mean n=3): -6.67%
DPSI ZNF827_1 chr4:146903692-146903724 (5227833 minus DMSO, mean n=3): -17.67%
DPSI ZNF827_1 chr4:146905581-146905589 (5227833 minus DMSO, mean n=3): 0.00%
DPSI NUMB_2 chr14:72815742-72815885 (5227833 minus DMSO, mean n=3, table row r49): 3.67%
DPSI NUMB_2 chr14:72815742-72815885 (5227833 minus DMSO, mean n=3, table row r63): 6.33%
AS events with DPSI ≤ -10% [1]: 10
AS events with DPSI ≥ 10% [1]: 1
AS events with P ≤ 0.05 [1]: 22

From PMC5267425, “Identification of small molecule modulators of HIV-1 Tat and Rev protein accumulation” (Retrovirology, 2017)
